What was measured:
[1] = target: T1, human phenylalanine hydroxylase (hPAH) (Homo sapiens, UniProt P00439); assay: Differential scanning fluorimetry (thermal denaturation); assay type: binding; conditions: for ΔTm1 (regulatory domain) / ΔTm2 (catalytic domain): 100 μM compound vs 1% DMSO control, * S.D. < 0.01
T1 construct: Recombinant full-length wild-type (WT) hPAH was expressed in E. coli Top10 cells in fusion with a hexa-histidyl peptide; made in house; host or cells: E. coli Top10
T1 sequence (P00439 1-452): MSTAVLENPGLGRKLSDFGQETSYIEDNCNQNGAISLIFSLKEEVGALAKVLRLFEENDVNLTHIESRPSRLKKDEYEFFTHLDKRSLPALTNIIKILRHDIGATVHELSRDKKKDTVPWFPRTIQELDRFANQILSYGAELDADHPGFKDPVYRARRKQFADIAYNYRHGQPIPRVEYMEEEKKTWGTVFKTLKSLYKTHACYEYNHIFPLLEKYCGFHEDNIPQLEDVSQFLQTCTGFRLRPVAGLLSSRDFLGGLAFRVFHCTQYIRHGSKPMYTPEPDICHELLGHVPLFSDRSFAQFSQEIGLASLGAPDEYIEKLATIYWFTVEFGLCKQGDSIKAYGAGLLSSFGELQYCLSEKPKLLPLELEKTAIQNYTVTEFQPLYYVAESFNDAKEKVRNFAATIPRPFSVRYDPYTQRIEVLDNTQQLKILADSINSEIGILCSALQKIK
Experimental: Thermal denaturation profiles of recombinant hPAH were obtained by differential scanning fluorimetry (DSF) in a C1000 Touch thermal cycler equipped with a CFX96 optical reaction module (Bio-Rad; Hercules, CA, USA) as previously described. Briefly, DSF assays (n = 3) were performed using 100 μg/mL hPAH tetramers (final concentration of 0.45 μM of tetramer), SYPRO Orange (5000-fold commercially available stock solution; Invitrogen; Carlsbad, CA, USA) at a 2.5-x final concentration and ramping the temperature from 20 to 90 °C, at 1 °C/min. Fluorescence data were acquired using the FRET channel. Data were processed using CFX Manager Software V3.0 (Bio-Rad) and the GraphPad Prism. Temperature scan curves were fitted to a biphasic dose–response function and the Tm values were obtained from the midpoint of the first (Tm1) and second transitions (Tm2) corresponding, respectively, to the thermal denaturation of the regulatory and catalytic domains. The Tm values in the presence of 3HQ were compared to those obtained in the presence of 1% DMSO (vehicle control) and a change in the Tm was considered significant when the |ΔTm| ≥ 2 °C [22].

[2] = target: T1, human phenylalanine hydroxylase (hPAH); assay: Surface plasmon resonance, immobilized hPAH; assay type: binding; conditions: for Kd / KD (steady-state affinity constant): 25 °C, 3HQs up to 200 μM, no saturation (lower limits); for Kd: read-out: KD (steady-state affinity constant)
Experimental: The affinity of hPAH for 3HQs was evaluated by surface plasmon resonance (SPR) using a Biacore 4000 (GE Healthcare) instrument. All assays were carried out at 25 °C. Optimization of hPAH immobilization on a carboxymethylated dextran (CM5) matrix of the sensor chip was initiated by performing a pH scouting, using as buffers 10 mM sodium acetate (pH 5.0, 5.2, 5.5 and 5.8), 10 mM Bis-Tris (pH 6.0, 6.2 and 6.5), and 10 mM sodium phosphate (pH 7.0). hPAH was diluted to 10 µg/mL in the best immobilization buffer (10 mM sodium acetate pH 5.5) and immobilized onto the CM5 sensor chip using the standard amine coupling procedure. The HBS-N buffer, consisting of 10 mM HEPES pH 7.4 and 150 mM NaCl, was used as background buffer. Prior to immobilization, the carboxymethylated surface of the chip was activated with a 1:1 ratio of 400 mM 1-ethyl-3-(3-dimethylaminopropyl)-carbodiimide and 100 mM N-hydroxysuccinimide for 10 min. The hPAH was coupled to the surface with a 1 to 2 min injection time at a flow rate of 10 μL/min in order to reach 2000 to 5000 RU. The remaining activated carboxymethylated groups were blocked with a 7 min injection of 1 M ethanolamine pH 8.5.
The 3HQs were directly diluted in running buffer (10 mM HEPES, 150 mM NaCl, 5 mM MgCl2, 0.1 mM EDTA, 0.05% (v/v) Tween-20, 1 mM DTT, pH 7.2, and 2% DMSO) and injected at ten different concentrations using two-fold dilutions series, from 200 µM to ≈ 0.4 μM. The interaction between hPAH and L-Phe in the ≈ 2–1000 μM range was also analyzed, for comparison with literature values. Moreover, L-Phe (at 1 mM) was used as a positive control to collect information on surface integrity and activity throughout the experiment. For competition experiments, 1 mM L-Phe was added to the running buffer. All sensorgrams were processed by first subtracting the binding response recorded from the control surface (reference spot), followed by subtracting an average of the buffer blank injections from the reaction spot. Interactions were assessed from the obtained plots of steady-state SPR response levels against 3HQs concentration, employing the provided Biacore 4000 evaluation software.

[3] = test system: trypsin; assay: Trypsin activity control with Z-Gly-Gly-Arg-AMC; assay type: biochemical; conditions: 100 μM compound; for relative (residual) trypsin activity: 1% DMSO control = 100%; for Trypsin Abs/min: control 512 ± 11
Experimental: To rule out compounds that inhibit/inactivate trypsin, changes in the cleavage rate of N-(Benzyloxy)carbonyl-glycylglycylarginyl-7-amido-4-methylcoumarin (Z–Gly–Gly–Arg–AMC; Bachem, Bubendorf, Switzerland), a synthetic substrate of trypsin, were monitored by fluorimetric measurements in a microplate reader (FLUOstar Omega; BMGLabtech, Ortenberg, Germany). The assays (n = 3) were performed in a 96-well plate, in SEC buffer and in a final volume of 200 μL containing 1.5 μg/mL of trypsin, 50 μM of Z–Gly–Gly–Arg–AMC and 100 μM of 3HQs derivatives. Fluorescence was measured in real-time, with λexc 360 nm and λem 460 nm, during 30 min at 25 °C. Controls were performed using substrate alone with 1% DMSO (negative control) and trypsin with no compounds and 1% DMSO (positive control).

[4] = 100 μM compound in 1% DMSO, control 43.4 ± 0.6
[5] = 100 μM compound in 1% DMSO, control 53.5 ± 0.4

Row | ΔTm2 (catalytic domain) [1] | ΔRU reduction in the presence of L-Phe ([2]; 1 mM L-Phe in running buffer) [%] | Kd [2] [µM] | Tm1 (regulatory domain) ([1]; 1 mM L-Phe, 1% DMSO) [°C] | Tm2 (catalytic domain) ([1]; 1 mM L-Phe, 1% DMSO) [°C] | SMILES | Tm1 (regulatory domain) [1, 4] [°C] | Tm2 (catalytic domain) [1, 5] [°C] | ΔTm1 (regulatory domain) [1] | relative (residual) trypsin activity [3] [%] | Trypsin Abs/min [3] [Abs/min] | KD (steady-state affinity constant) [2]
1 | +0.1 ± 0.01 °C | > 50 | ≥ 121 | – | – | CCOC(=O)[C@H](Cc1ccccc1)NC(=O)c1c(O)c(=O)[nH]c2ccc(OC(F)(F)F)cc12 [Compound 3] | 51.7 ± 0.4 | 53.6 ± 0.2 | +8.3 ± 0.06 °C | 79 | 403 ± 12 | –
2 | -1.3 ± 0.01 °C | – | ≥ 200 | – | – | O=C(NCCc1ccccc1)c1c(O)c(=O)[nH]c2ccc(OC(F)(F)F)cc12 [Compound 8] | 43.3 ± 0.1 | 52.2 ± 0.3 | – | 62 | 319 ± 7 | –
3 | – | – | – | – | – | COC(=O)CNC(=O)c1c(O)c(=O)[nH]c2ccc(OC(F)(F)F)cc12 [Compound 11] | 47.4 ± 0.1 | 53.6 ± 0.2 | +4.0 ± 0.01 °C | 92 | 470 ± 11 | at least mM affinity
4 | – | – | 47 ± 8 | 51.0 ± 0.2 | 58.4 ± 0.04 | N[C@@H](Cc1ccccc1)C(=O)O [L-Phe, L-phenylalanine, reference compound] | – | – | – | – | – | –

Row | SMILES | ΔTm2 (catalytic domain) [1] | ΔRU reduction in the presence of L-Phe ([2]; 1 mM L-Phe in running buffer) [%] | Kd [2] [µM] | Tm1 (regulatory domain) ([1]; 1 mM L-Phe, 1% DMSO) [°C] | Tm2 (catalytic domain) ([1]; 1 mM L-Phe, 1% DMSO) [°C] | Tm1 (regulatory domain) [1, 4] [°C] | Tm2 (catalytic domain) [1, 5] [°C] | ΔTm1 (regulatory domain) [1] | relative (residual) trypsin activity [3] [%] | Trypsin Abs/min [3] [Abs/min] | KD (steady-state affinity constant) [2]
5 | COC(=O)CC[C@H](NC(=O)c1c(O)c(=O)[nH]c2ccc(OC(F)(F)F)cc12)C(=O)OC [Compound 9] | -0.5 ± 0.01 °C | – | – | – | – | 43.5 ± 0.1 | 53.0 ± 0.1 | +0.2 ± 0.01 °C | 71 | 362 ± 9 | at least mM affinity

From article PMC8003416, “Modulation of Human Phenylalanine Hydroxylase by 3-Hydroxyquinolin-2(1H)-One Derivatives” (Biomolecules, 2021)
